Test results taken from ChEMBL document CHEMBL3997785, “Optimization of 2-Anilino 4-Amino Substituted Quinazolines into Potent Antimalarial Agents with Oral in Vivo Activity” (J Med Chem, 2017).
In brackets after ≈: the same amount, converted by molar mass. Activity calls are given as the source filed them. The rule behind the calls is not given here.

Key:
[1] = Intrinsic clearance in human liver microsomes at 1 uM in presence of NADPH by LC-MS method; type: ADME, microsome; conditions: read-out: CLH
[2] = Aqueous solubility of the compound at pH 6.5 by nephelometry; type: physicochemical
Plasmodium falciparum [3] = assay: Antimalarial activity against Plasmodium falciparum 3D7 asexual blood stage infected in human erythrocytes incubated for 72 hrs by LDH assay; type: functional, cell-based; conditions: 3D7, 72 h
HepG2 = assay: Cytotoxicity against human HepG2 cells assessed as growth inhibition after 48 hrs by Cell Titer-Glo assay; type: cell-based; conditions: HepG2, 48 h
[4] = Selectivity index, ratio of EC50 for human HepG2 cells to EC50 for Plasmodium falciparum 3D7 asexual blood stage infected in human erythrocytes; type: toxicity, cell-based; conditions: read-out: Ratio EC50
[5] = Aqueous solubility of the compound at pH 2 by nephelometry; type: physicochemical
[6] = Half life in human liver microsomes at 1 uM in presence of NADPH by LC-MS method; type: ADME, microsome
[7] = Half life in mouse liver microsomes at 1 uM in presence of NADPH by LC-MS method; type: ADME, microsome
[8] = Intrinsic clearance in mouse liver microsomes at 1 uM in presence of NADPH by LC-MS method; type: ADME, microsome; conditions: read-out: CLH
Plasmodium falciparum [9] = assay: Antimalarial activity against chloroquine and mefloquine resistant Plasmodium falciparum W2mef infected in human erythrocytes incubated for 72 hrs by LDH assay; type: functional, cell-based
Plasmodium falciparum [10] = assay: Antimalarial activity against synchronous culture of Plasmodium falciparum 3D7 infected in human erythrocytes assessed as development arrest at ring stage of asexual life cycle leading to parasite death at 10 times EC50 up to 48 hrs by Giemsa-staining based assay relative to control; type: functional, cell-based
Plasmodium falciparum [11] = assay: Antimalarial activity against Plasmodium falciparum NF54 harboring pfs16-LUC-GFP ring stage gametocytes after 24 hrs by MitoTracker Red staining based confocal microscopy; type: functional; conditions: NF54, 24 h
Plasmodium falciparum [12] = assay: Antimalarial activity against Plasmodium falciparum NF54 harboring pfs16-LUC-GFP early stage 1 to 3 gametocytes after 48 hrs by MitoTracker Red staining based confocal microscopy; type: functional; conditions: NF54, 48 h
Plasmodium falciparum [13] = assay: Antimalarial activity against Plasmodium falciparum NF54 harboring pfs16-LUC-GFP late stage 4 to 5 gametocytes after 48 hrs by MitoTracker Red staining based confocal microscopy; type: functional; conditions: NF54, 48 h
Plasma [14] = assay: Drug uptake in Plasmodium berghei ANKA infected Swiss black mouse plasma at 20 mg/kg, ip measured after 20 hrs; type: ADME, organism-based; conditions: in vivo
Plasmodium falciparum [15] = assay: Antimalarial activity against Plasmodium falciparum 3D7 infected in human erythrocytes assessed as arrest at trophozoite stage of asexual life cycle leading to parasite death at 10 times EC50 up to 48 hrs by Giemsa-staining based assay relative to control; type: functional, cell-based
[16] = Hepatic extraction ratio in human liver microsomes at 1 uM in presence of NADPH by LC-MS method; type: ADME, microsome; conditions: read-out: ERH
[17] = Hepatic extraction ratio in mouse liver microsomes at 1 uM in presence of NADPH by LC-MS method; type: ADME, microsome; conditions: read-out: ERH
Liver [18] = assay: Drug metabolism in human liver microsomes assessed as N-demethylation of methyl piperidine or piperazine at 1 uM after 60 mins in presence of NADPH by LC-MS method; type: ADME, microsome; conditions: 1 h
Liver [19] = assay: Drug metabolism in mouse liver microsomes assessed as N-demethylation of methyl piperidine or piperazine at 1 uM after 60 mins in presence of NADPH by LC-MS method; type: ADME, microsome; conditions: 1 h
Liver [20] = assay: Drug metabolism in human liver microsomes assessed as mono-oxygenation at 6th position of quinazoline at 1 uM after 60 mins in presence of NADPH by LC-MS method; type: ADME, microsome; conditions: 1 h
Liver [21] = assay: Drug metabolism in mouse liver microsomes assessed as mono-oxygenation at 6th position of quinazoline at 1 uM after 60 mins in presence of NADPH by LC-MS method; type: ADME, microsome; conditions: 1 h
[22] = Ratio of EC50 for Plasmodium falciparum NF54-pfs16-LUC-GFP ring stage gametocytes to EC50 for Plasmodium falciparum 3D7 asexual blood stage infected in human erythrocytes; type: functional
[23] = Ratio of EC50 for Plasmodium falciparum NF54-pfs16-LUC-GFP early stage gametocytes to EC50 for Plasmodium falciparum 3D7 asexual blood stage infected in human erythrocytes; type: functional
Plasma [24] = assay: Drug uptake in Plasmodium berghei ANKA infected Swiss black mouse plasma at 20 mg/kg, po via gavage measured after 20 hrs; type: ADME, organism-based; conditions: in vivo
Liver [25] = assay: Drug metabolism in human liver microsomes assessed as O-demethylation of 6 and 7 methoxy groups at 1 uM after 60 mins in presence of NADPH by LC-MS method; type: ADME, microsome; conditions: 1 h
Liver [26] = assay: Drug metabolism in mouse liver microsomes assessed as O-demethylation of 6 and 7 methoxy groups at 1 uM after 60 mins in presence of NADPH by LC-MS method; type: ADME, microsome; conditions: 1 h
Plasmodium falciparum [27] = assay: Antimalarial activity against synchronous culture of Plasmodium falciparum 3D7 ring stage parasite infected in human erythrocytes incubated for 3 hrs followed by compound wash out and measured after 24 hrs by NanoGlo-reagent based bioluminescence assay; type: functional, cell-based
Plasmodium falciparum [28] = assay: Antimalarial activity against synchronous culture of Plasmodium falciparum 3D7 ring stage parasite infected in human erythrocytes incubated for 6 hrs followed by compound wash out and measured after 24 hrs by NanoGlo-reagent based bioluminescence assay; type: functional, cell-based
Plasmodium falciparum [29] = assay: Antimalarial activity against synchronous culture of Plasmodium falciparum 3D7 ring stage parasite infected in human erythrocytes incubated for 24 hrs followed by compound wash out and measured after 24 hrs by NanoGlo-reagent based bioluminescence assay; type: functional, cell-based; conditions: 3D7, 24 h
Plasmodium berghei [30] = assay: Antimalarial activity against Plasmodium berghei ANKA infected Swiss black mouse model at 20 mg/kg administered via oral gavage for 4 days starting 4 hrs post infection by microscopic method; type: functional
Plasmodium berghei [31] = assay: Antimalarial activity against Plasmodium berghei ANKA infected Swiss black mouse at 20 mg/kg, ip administered for 4 days starting 4 hrs post infection by microscopic method; type: functional
Liver [32] = assay: Drug metabolism in human liver microsomes assessed as hydro defluorination at 1 uM after 60 mins in presence of NADPH by LC-MS method; type: ADME, microsome; conditions: 1 h
Liver [33] = assay: Drug metabolism in mouse liver microsomes assessed as hydro defluorination at 1 uM after 60 mins in presence of NADPH by LC-MS method; type: ADME, microsome; conditions: 1 h

Structure (SMILES)	microsomal CLint at 1 µM [1] [µL/min/mg]	solubility kinetic [2] [µM]	EC50 (Plasmodium falciparum [3]) [µM]	EC50 (HepG2) [µM]	selectivity ratio [4]	solubility kinetic [5] [µM]	half-life at 1 µM [6] [h]	half-life at 1 µM [7] [h]	microsomal CLint at 1 µM [8] [µL/min/mg]	EC50 (Plasmodium falciparum [9]) [µM]	Activity (Plasmodium falciparum [10])	EC50 (Plasmodium falciparum [11]) [µM]	EC50 (Plasmodium falciparum [12]) [µM]	EC50 (Plasmodium falciparum [13]) [µM]	Drug uptake (Plasma [14])	Activity (Plasmodium falciparum [15])	hepatic extraction ratio at 1 µM [16]	hepatic extraction ratio at 1 µM [17]	Drug metabolism (Liver [18])	Drug metabolism (Liver [19])	other results
CN1CCC(Nc2nc(Nc3ccc(Cl)c(F)c3)nc3ccccc23)CC1.Cl.Cl	10	4.2 to 8.4	0.028	5.1	179	> 90	3.02	3.2	9	0.061	Active	0.22	0.554	2.7	Active	inactive	0.28	0.16	Metabolite_Detected	Metabolite_Detected	Drug metabolism (Liver [20]): Metabolite_Detected; Drug metabolism (Liver [21]): Metabolite_Detected; Ratio EC50 [22]: 10; Ratio EC50 [23]: 15 - 25; Drug uptake (Plasma [24]): Active
COc1cc2nc(Nc3ccc(F)cc3)nc(NCC3CCCO3)c2cc1OC (stereo not drawn)	27	3.1 to 6.3 (≈ 1.24 to 2.51 µg/mL)	0.057	5.5	96	25 to 50 (≈ 9.96 to 19.9 µg/mL)	1.07	0.4	72								0.52	0.61			Drug metabolism (Liver [25]): Metabolite_Detected; Drug metabolism (Liver [26]): Metabolite_Detected
COc1cc2nc(Nc3ccc(F)cc3)nc(NCc3ccccc3)c2cc1OC	< 7	1.6 to 3.1 (≈ 0.647 to 1.25 µg/mL)	0.041	2.8	109	1.6 to 3.1 (≈ 0.647 to 1.25 µg/mL)	> 4.12	0.817	35								< 0.22	0.43			Drug metabolism (Liver [25]): Metabolite_Detected; Drug metabolism (Liver [26]): Metabolite_Detected
CN1CCN(CCNc2nc(Nc3ccc(Cl)c(F)c3)nc3ccccc23)CC1.Cl.Cl	23	10.9 to 22	0.027	7.5	275	> 90	1.28	0.783	37	0.057	Active	0.207	0.453	4	Active	inactive	0.47	0.44	Metabolite_Detected	Metabolite_Detected	EC50 (Plasmodium falciparum [27]): 3.34 µM; Activity (Plasmodium falciparum [28]): Dose dependent effect; EC50 (Plasmodium falciparum [28]): 3.12 µM; EC50 (Plasmodium falciparum [29]): 0.637 µM; Activity (Plasmodium berghei [30]): >90%; Activity (Plasmodium berghei [31]): >98%; Drug metabolism (Liver [20]): Metabolite_Detected; Drug metabolism (Liver [21]): Metabolite_Detected; Ratio EC50 [22]: 10; Ratio EC50 [23]: 15 - 25; Drug uptake (Plasma [24]): Active
CN1CCC(Nc2nc(Nc3ccc(F)c(Cl)c3)nc3ccccc23)CC1.Cl.Cl	< 7	11.3 to 23	0.035	5.1	145	> 90	> 4.25	2.48	12	0.054	Active	0.223	0.515	3.7	Active	inactive	< 0.22	0.2	Metabolite_Detected	Metabolite_Detected	Activity (Plasmodium berghei [30]): Active; Drug metabolism (Liver [20]): Metabolite_Detected; Drug metabolism (Liver [21]): Metabolite_Detected; Drug metabolism (Liver [32]): Metabolite_Detected; Drug metabolism (Liver [33]): Metabolite_Detected; Ratio EC50 [22]: 10; Ratio EC50 [23]: 15 - 25; Drug uptake (Plasma [24]): Active
CCN(CC)CCCC(C)Nc1ccnc2cc(Cl)ccc12 (stereo not drawn) [CHLOROQUINE]			0.023									0.02		> 40							EC50 (Plasmodium falciparum [27]): 0.608 µM; EC50 (Plasmodium falciparum [28]): 0.643 µM; EC50 (Plasmodium falciparum [29]): 0.286 µM
C[C@@H]1CC[C@H]2[C@@H](C)C(=O)O[C@@H]3O[C@@]4(C)CC[C@@H]1[C@]32OO4 [ARTEMISININ]																					EC50 (Plasmodium falciparum [28]): 0.005 µM; EC50 (Plasmodium falciparum [29]): 0.002 µM
C[C@H]1[C@H](OC(=O)CCC(=O)O)O[C@@H]2O[C@@]3(C)CC[C@H]4[C@H](C)CC[C@@H]1[C@@]24OO3 [ARTESUNATE]			0.008							0.006		0.003	0.003	0.008							
